Results taken from patent US20240293472A1, “Bee Product Extracts, Methods of Production, and Uses Thereof” (Quantum Technologies Limited, priority 2020, published 2024).

Target: T1, HDAC1 (Homo sapiens, UniProt Q13547)
T1 construct: purchased Huntingtree Associates Ltd
Assay: Epigenase HDAC Activity/Inhibition Direct Assay Kit (Colorimetric)
Assay type: biochemical
Settings: FIG. 20

T1 sequence (Q13547 whole entry): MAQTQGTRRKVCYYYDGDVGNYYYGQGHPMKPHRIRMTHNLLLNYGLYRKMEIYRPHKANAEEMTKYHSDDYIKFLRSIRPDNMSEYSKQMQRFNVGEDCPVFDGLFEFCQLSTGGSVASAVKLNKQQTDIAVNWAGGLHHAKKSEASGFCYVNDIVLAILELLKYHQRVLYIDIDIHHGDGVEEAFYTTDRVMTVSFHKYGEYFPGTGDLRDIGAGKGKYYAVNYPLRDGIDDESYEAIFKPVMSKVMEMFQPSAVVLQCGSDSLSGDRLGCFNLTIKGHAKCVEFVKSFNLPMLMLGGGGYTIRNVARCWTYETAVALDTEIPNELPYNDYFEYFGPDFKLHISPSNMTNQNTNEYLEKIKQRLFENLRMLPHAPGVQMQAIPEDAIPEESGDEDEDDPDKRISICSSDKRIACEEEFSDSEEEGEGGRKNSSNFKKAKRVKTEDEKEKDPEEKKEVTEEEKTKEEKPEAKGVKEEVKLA

With `CC(=O)C=O` [MGO, Methylglyoxal] the HDAC inhibition was “dose response inhibition”.
